{
  "source": "PubChem BioAssay (NCI)",
  "experiment_in_all_cases": "NCI tumour cell line growth inhibition, 48 h",
  "key": {"[1]": {"test_system": "NCI-H522 lung"}, "[2]": {"test_system": "KM12 colon"}, "[3]": {"test_system": "HCT-116 colon"}, "[4]": {"test_system": "CAKI-1 renal"}, "[5]": {"test_system": "SK-MEL-28 melanoma"}, "[6]": {"test_system": "HT29 colon"}, "[7]": {"test_system": "UO-31 renal"}, "[8]": {"test_system": "SNB-75 CNS"}, "[9]": {"test_system": "LOX IMVI melanoma"}, "[10]": {"test_system": "NCI-H460 lung"}, "[11]": {"test_system": "NCI/ADR-RES ovarian"}, "[12]": {"test_system": "OVCAR-4 ovarian"}, "[13]": {"test_system": "OVCAR-5 ovarian"}, "[14]": {"test_system": "RXF 393 renal"}, "[15]": {"test_system": "ACHN renal"}, "[16]": {"test_system": "786-0 renal"}, "[17]": {"test_system": "SF-268 CNS"}, "[18]": {"test_system": "SF-539 CNS"}, "[19]": {"test_system": "NCI-H226 lung"}, "[20]": {"test_system": "COLO 205 colon"}, "[21]": {"test_system": "OVCAR-3 ovarian"}, "[22]": {"test_system": "HCT-15 colon"}, "[23]": {"test_system": "TK-10 renal"}, "[24]": {"test_system": "EKVX NSCLC"}, "[25]": {"test_system": "SK-MEL-2 melanoma"}, "[26]": {"test_system": "MOLT-4 leukemia"}, "[27]": {"test_system": "SNB-19 CNS"}, "[28]": {"test_system": "UACC-257 melanoma"}, "[29]": {"test_system": "HCC-2998 colon"}, "[30]": {"test_system": "BT-549 breast"}, "[31]": {"test_system": "PC-3 prostate"}, "[32]": {"test_system": "NCI-H23 lung"}, "[33]": {"test_system": "A549 NSCLC"}, "[34]": {"test_system": "HS 578T breast"}, "[35]": {"test_system": "M14 melanoma"}, "[36]": {"test_system": "RPMI-8226 leukemia"}, "[37]": {"test_system": "SK-MEL-5 melanoma"}, "[38]": {"test_system": "U251 CNS"}, "[39]": {"test_system": "IGROV1 ovarian"}, "[40]": {"test_system": "SK-OV-3 ovarian"}, "[41]": {"test_system": "OVCAR-8 ovarian"}, "[42]": {"test_system": "DU-145 prostate"}, "[43]": {"test_system": "A498 renal"}, "[44]": {"test_system": "MALME-3M melanoma"}, "[45]": {"test_system": "HL-60(TB) leukemia"}, "[46]": {"test_system": "MDA-MB-435"}, "[47]": {"test_system": "T-47D breast"}, "[48]": {"test_system": "SN12C renal"}, "[49]": {"test_system": "K-562 leukemia"}, "[50]": {"test_system": "MDA-MB-231 breast"}, "[51]": {"test_system": "SF-295 CNS"}, "[52]": {"test_system": "HOP-62 NSCLC"}, "[53]": {"test_system": "SW-620 colon"}, "[54]": {"test_system": "MCF7 breast"}, "[55]": {"test_system": "HOP-92 NSCLC"}, "[56]": {"test_system": "SR leukemia"}, "[57]": {"test_system": "CCRF-CEM leukemia"}},
  "note": "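All cell lines were grown in 96-well plates and treated with compound for 48 hours. At the TGI there is no net growth.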",
  "data": [
    {"smiles": "COC(=O)CCC(C)[C@H]1CCC2C3C(C[C@H](OC(C)=O)[C@@]21C)[C@@]1(C)CCC2(C[C@H]1C[C@H]3OC(C)=O)OOC1(CCC(C(C)(C)C)CC1)OO2", "note": "(some centres not stated)", "values": [
      {"measurement": "TGI", "setting": "[1]", "value": "> 100", "unit": "µM"},
      {"measurement": "TGI", "setting": "[2]", "value": "> 100", "unit": "µM"},
      {"measurement": "TGI", "setting": "[3]", "value": "> 100", "unit": "µM"},
      {"measurement": "TGI", "setting": "[4]", "value": "> 100", "unit": "µM"},
      {"measurement": "TGI", "setting": "[5]", "value": "> 100", "unit": "µM"},
      {"measurement": "TGI", "setting": "[6]", "value": "> 100", "unit": "µM"},
      {"measurement": "TGI", "setting": "[7]", "value": 29, "unit": "µM"},
      {"measurement": "TGI", "setting": "[8]", "value": "> 100", "unit": "µM"},
      {"measurement": "TGI", "setting": "[9]", "value": "> 100", "unit": "µM"},
      {"measurement": "TGI", "setting": "[10]", "value": "> 100", "unit": "µM"},
      {"measurement": "TGI", "setting": "[11]", "value": "> 100", "unit": "µM"},
      {"measurement": "TGI", "setting": "[12]", "value": "> 100", "unit": "µM"},
      {"measurement": "TGI", "setting": "[13]", "value": "> 100", "unit": "µM"},
      {"measurement": "TGI", "setting": "[14]", "value": "> 100", "unit": "µM"},
      {"measurement": "TGI", "setting": "[15]", "value": "> 100", "unit": "µM"},
      {"measurement": "TGI", "setting": "[16]", "value": "> 100", "unit": "µM"},
      {"measurement": "TGI", "setting": "[17]", "value": "> 100", "unit": "µM"},
      {"measurement": "TGI", "setting": "[18]", "value": "> 100", "unit": "µM"},
      {"measurement": "TGI", "setting": "[19]", "value": "> 100", "unit": "µM"},
      {"measurement": "TGI", "setting": "[20]", "value": "> 100", "unit": "µM"},
      {"measurement": "TGI", "setting": "[21]", "value": "> 100", "unit": "µM"},
      {"measurement": "TGI", "setting": "[22]", "value": "> 100", "unit": "µM"},
      {"measurement": "TGI", "setting": "[23]", "value": "> 100", "unit": "µM"},
      {"measurement": "TGI", "setting": "[24]", "value": 30, "unit": "µM"},
      {"measurement": "TGI", "setting": "[25]", "value": "> 100", "unit": "µM"},
      {"measurement": "TGI", "setting": "[26]", "value": "> 100", "unit": "µM"},
      {"measurement": "TGI", "setting": "[27]", "value": "> 100", "unit": "µM"},
      {"measurement": "TGI", "setting": "[28]", "value": "> 100", "unit": "µM"},
      {"measurement": "TGI", "setting": "[29]", "value": "> 100", "unit": "µM"},
      {"measurement": "TGI", "setting": "[30]", "value": "> 100", "unit": "µM"},
      {"measurement": "TGI", "setting": "[31]", "value": "> 100", "unit": "µM"},
      {"measurement": "TGI", "setting": "[32]", "value": "> 100", "unit": "µM"},
      {"measurement": "TGI", "setting": "[33]", "value": "> 100", "unit": "µM"},
      {"measurement": "TGI", "setting": "[34]", "value": "> 100", "unit": "µM"},
      {"measurement": "TGI", "setting": "[35]", "value": "> 100", "unit": "µM"},
      {"measurement": "TGI", "setting": "[36]", "value": 45.2, "unit": "µM"},
      {"measurement": "TGI", "setting": "[37]", "value": "> 100", "unit": "µM"},
      {"measurement": "TGI", "setting": "[38]", "value": "> 100", "unit": "µM"},
      {"measurement": "TGI", "setting": "[39]", "value": 48.8, "unit": "µM"},
      {"measurement": "TGI", "setting": "[40]", "value": "> 100", "unit": "µM"},
      {"measurement": "TGI", "setting": "[41]", "value": "> 100", "unit": "µM"},
      {"measurement": "TGI", "setting": "[42]", "value": "> 100", "unit": "µM"},
      {"measurement": "TGI", "setting": "[43]", "value": "> 100", "unit": "µM"},
      {"measurement": "TGI", "setting": "[44]", "value": "> 100", "unit": "µM"},
      {"measurement": "TGI", "setting": "[45]", "value": "> 100", "unit": "µM"},
      {"measurement": "TGI", "setting": "[46]", "value": "> 100", "unit": "µM"},
      {"measurement": "TGI", "setting": "[47]", "value": "> 100", "unit": "µM"},
      {"measurement": "TGI", "setting": "[48]", "value": "> 100", "unit": "µM"},
      {"measurement": "TGI", "setting": "[49]", "value": "> 100", "unit": "µM"},
      {"measurement": "TGI", "setting": "[50]", "value": "> 100", "unit": "µM"},
      {"measurement": "TGI", "setting": "[51]", "value": "> 100", "unit": "µM"},
      {"measurement": "TGI", "setting": "[52]", "value": 29, "unit": "µM"},
      {"measurement": "TGI", "setting": "[53]", "value": "> 100", "unit": "µM"},
      {"measurement": "TGI", "setting": "[54]", "value": "> 100", "unit": "µM"},
      {"measurement": "TGI", "setting": "[55]", "value": "> 100", "unit": "µM"},
      {"measurement": "TGI", "setting": "[56]", "value": "> 100", "unit": "µM"},
      {"measurement": "TGI", "setting": "[57]", "value": "> 100", "unit": "µM"}
    ]}
  ]
}
